The subject of one assay is Red cell water channels. As to conditions: submillimolar concentrations; cited from earlier work.
The nature of assay [1]: Stopped-flow water flux (Pf) in control liposomes, effect of mercurial reagents. As to conditions: 1 mM mercurial. The assay is classed as biochemical. How it is done: Purified AQP1 was stored overnight at 0° C. or frozen for several days at -80° C. prior to reconstitution. Reconstitution into proteoliposomes was carried out in a final volume of 1 ml containing 60-90 μg of purified AQP 1 protein in chromatography buffer, 9 mg of bath-sonicated E. coli phospholipid, 1.25% (w/v) octyl glucoside, and 50 mM Tris-HCl (pH 7.5). The mixture was briefly blended on a vortex mixer and incubated for 20 minutes on ice. […] Protein and phospholipid were measured as described by Ambudkar & Maloney (J. Biol. Chem., 1986, 261:10079-10086).
Permeability measurements. Membrane permeability measurements (Pf) were measured by exposing AQP1 proteoliposomes or control liposomes to an osmotic gradient by rapid mixing with an equal volume of another solution containing buffer A plus sufficient sucrose to increase osmolality in the mixed solutions to a value 120% of that in the original solution. This was performed with a stopped-flow fluorometer (SF.17MV, Applied Photophysics, Leatherhead, U.K.) with a measured dead time of 0.7 ms. […] Extravesicular carboxyfluorescein fluorescence was completely quenched using anti-fluorescein antibody (Harris et al., 1990, Am. J. Physiol. 259:F366-F371). […]

For the molecule `[Cl][Hg][Cl]` [HgCl2], the “inhibition of red cell water channels” value in the assay on Red cell water channels is recorded as “can be inhibited by submillimolar concentrations”. Moreover, in assay [1], the “effect on the Pf of control liposomes” value is recorded as “Neither pCMBS nor HgCl2 had any effect”.

These data come from US5858702A, “Isolation, cloning and expression of transmembrane water channel Aquaporin 5 (AQP5)” (The Johns Hopkins University, priority 1995, dated 1999).
